# Source: US20250326722A1 (SHANGHAI HANSOH BIOMEDICAL CO., LTD., priority 2022, published 2025)
# Columns and labels:
# [1] = Pharmacokinetic determination in mice (plasma); assay type: in vivo, C57BL/6J mice; conditions: C57 mice, PO administration, 5 mpk; for AUC(0-inf) / half-life / MRT / Cmax: male, C57BL/6J, mouse, 5 mg/kg; for AUC(0-inf): read-out: Area under the curve AUC0-∞; for half-life: read-out: Half-life t1/2 (converted); for MRT: read-out: Mean residence time MRT; for Cmax: read-out: Plasma concentration Cmax
# How it was run: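 Male C57BL/6J mice (n=3 per route), fasted overnight, got 5 mg/kg PO in 10% Solutol HS15 or 1 mg/kg IV in 5% DMSO/10% Solutol HS15/85% PBS. Orbital blood was sampled at 0.083 (IV only), 0.25, 0.5, 1, 2, 4, 8 and 24 h. EDTA-K2 plasma was quantified by LC-MS/MS for PK parameters.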
# [2] = system: hyperlipidemia animal model of B6-hPCSK9 transgenic mice; assay: In vivo pharmacodynamics in hyperlipidemia animal model of B6-hPCSK9 transgenic mice; set-up: species or system B6-hPCSK9 transgenic C57 mice; conditions: PO administration, 10 mpk, Day 14, high-fat feed
# Experimental: The compounds of the present disclosure were evaluated for in vivo pharmacodynamics in a hyperlipidemia animal model of B6-hPCSK9 transgenic mice.
# B6-hPCSK9 transgenic C57 mice, 6-8 weeks old, male, purchased from Jiangsu GemPharmatech Co., Ltd.
# After delivery to a barrier system, the animals were given one week for acclimatization and began to feed on the high-fat feed. The body weight and feed weight were weighed once a week, and the body weight and food intake thereof were recorded.
# a. The animals were grouped by a random grouping method.
# c. According to the grouping results, administration with the test drug was started (mode of administration: oral administration; administration volume: 10 mL/kg; frequency of administration: once/day or single administration; administration cycle: 21 days; vehicle: 10% Solutol HS 15/90% Saline).
# d. After the test drug was administered, the body weight and feed weight were weighed twice a week and blood was taken once a week.
# e. The data was processed with software such as Excel. […] PCSK9 in plasma was detected by ELISA.
# [3] = biological target: PCSK9 secreted by HepG2 cells (Homo sapiens (Human), UniProt Q8NBP7); assay: Effect on the concentration of PCSK9 secreted by HepG2 cells (ELISA); assay type: cell-based; conditions: 48 hours incubation, read-out: Inhibitory activity on PCSK9, IC50
# Sequence of PCSK9 secreted by HepG2 cells (Q8NBP7 153-692): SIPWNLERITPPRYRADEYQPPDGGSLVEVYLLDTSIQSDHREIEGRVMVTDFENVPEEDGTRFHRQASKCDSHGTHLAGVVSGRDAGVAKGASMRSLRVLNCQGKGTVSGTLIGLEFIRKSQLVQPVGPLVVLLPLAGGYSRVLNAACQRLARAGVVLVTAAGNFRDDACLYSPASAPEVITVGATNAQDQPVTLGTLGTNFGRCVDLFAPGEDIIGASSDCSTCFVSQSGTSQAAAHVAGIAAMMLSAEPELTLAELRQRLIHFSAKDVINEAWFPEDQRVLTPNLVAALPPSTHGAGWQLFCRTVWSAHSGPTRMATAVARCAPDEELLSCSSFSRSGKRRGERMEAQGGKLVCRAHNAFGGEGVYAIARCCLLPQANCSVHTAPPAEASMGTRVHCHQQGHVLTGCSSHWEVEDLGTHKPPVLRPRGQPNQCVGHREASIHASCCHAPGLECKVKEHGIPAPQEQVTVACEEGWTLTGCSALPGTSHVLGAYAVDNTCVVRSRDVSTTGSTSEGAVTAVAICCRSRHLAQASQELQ
# Sequence of PCSK9 secreted by HepG2 cells (Q8NBP7 31-152 partner): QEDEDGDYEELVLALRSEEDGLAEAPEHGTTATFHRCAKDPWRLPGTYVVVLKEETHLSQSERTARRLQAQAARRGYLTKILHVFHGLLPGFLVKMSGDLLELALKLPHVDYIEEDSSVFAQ
Time to peak tmax [1] [h],AUC(0-inf) [1] [ng·h/mL],half-life [1] [h],MRT [1] [h],Cmax [1] [ng/mL],IC50 [3] [µM],Structure (SMILES),"LDL-C change, Day 14 [2] [%]"
1,15000,2.8,4,2820,27.5,O=C1c2ncccc2CN1c1ccc(N[C@H]2CC[C@H](Nc3ncc(C(F)(F)F)nn3)C2)nc1 [Example 144],−30.39
1,59800,3.4,4.3,13500,9.4,"Cc1cc2c(cn1)CN(c1ccc(N[C@H]3CC[C@H](Nc4ncc(C(F)(F)F)nn4)C3)nc1)C2=O [Example 148, 6-Methyl-2-(6-(((1S,3S)-3-((6-(trifluoromethyl)-1,2,4-triazin-3-yl)amino)cyclopentyl)amino)pyridin-3-yl)-2,3-dihydro-1H-pyrrolo[3,4-c]pyridin-1-one]",−24.61
0.5,6200,3.1,2.6,2190,4.2,"O=C1c2c(cccc2C(F)(F)F)CN1c1ccc(N[C@H]2CC[C@H](Nc3ncc(C(F)(F)F)nn3)C2)nc1 [Example 157, 7-(Trifluoromethyl)-2-(6-(((1S,3S)-3-((6-(trifluoromethyl)-1,2,4-triazin-3-yl)amino)cyclopentyl)amino)pyridin-3-yl) isoindolin-1-one]",−28.99
